Test results reported in patent US20240139207A1, “METHODS FOR TREATING PULMONARY HYPERTENSION” (United Therapeutics Corporation, priority 2022, published 2024).

Tests used:
[1] = system: patients with pulmonary arterial hypertension; experiment: Phase 4 open-label 16-week study: safety and tolerability, prostanoid-related adverse events; format: in vivo, human; conditions: for most bothersome AE: during the phase of the labelled form; for participants who received acetaminophen for prostacyclin-related headache / participants who received loperamide for prostacyclin-related diarrhea / participants who received ondansetron for prostacyclin-related nausea/vomiting: per-protocol population (n=29), while on the labelled form
Procedure: Safety and tolerability were assessed at each scheduled visit and in between visits as needed throughout the duration of the study. Tolerability measures of interest included incidence of all adverse events (AEs) and prostanoid-related AEs including headache, diarrhea, nausea, vomiting, flushing, jaw pain and extremity pain. […] Prostanoid-related events captured by the survey were only recorded if the event was unusual with respect to intensity, frequency, or duration compared to symptoms in the patient's medical history. Patient compliance with taking oral treprostinil was assessed by performing study drug accountability at each scheduled study visit. The primary endpoint and all efficacy endpoints were analyzed using the per-protocol population, which included all patients without major protocol deviations unless otherwise specified. The exact (Clopper-Pearson) 95% confidence interval was calculated for the primary endpoint. […] For continuous variables, descriptive statistics are reported as median (interquartile range, IQR or range) or mean (±standard deviation, SD). For categorical variables, descriptive statistics include frequency and percentage of patients in each category. Changes from baseline to Week 16 for continuous variables were analyzed using Wilcoxon signed rank test. The change in FC from baseline to Week 16 was analyzed using McNemar's test. The p-values from these tests were derived for descriptive purposes and not part of a formal hypothesis testing framework.

[2] = system: patients with pulmonary arterial hypertension; experiment: Phase 4 open-label 16-week study: clinical parameters, risk stratification, patient-reported outcomes; format: in vivo, human
Description: The secondary endpoints of this study included measurements in: changes in prostanoid adverse events (AEs), echocardiograms, change in 6-minute walk distance (6MWD), change in Borg dyspnea score, change in World Health Organization (WHO) functional class (FC), change in serum N-terminal pro-brain natriuretic peptide (NT-proBNP) levels, impact of pulmonary hypertension on a person's life (health-related quality of life), and treatment satisfaction. Specifically, this study sought to measure the percentage of subjects that improved in each of the following individual four clinical parameters at Week 16 (6MWD, NT-proBNP, WHO FC, right atrial area) to a lower risk stratum, as defined by the 2015 ESC/ERS guidelines (Gailè et al., DOI: 10.1183/13993003.01032-2015), compared to baseline measurements. An additional endpoint was determining the percentage of subjects that meet each of the following four individual clinical parameters at Week 16 in the low risk category, as defined by 2015 ESC/ERS guidelines: 6MWD>440 meters, […].
(§1) Based on the 2015 ESC/ERS Guidelines, specific hemodynamic inclusion criteria included a mean pulmonary arterial pressure ≥25 mmHg, pulmonary artery wedge pressure or left ventricular end-diastolic pressure ≤15 mmHg, and pulmonary vascular resistance >3 Wood units, in the absence of unrepaired congenital heart disease. Other key inclusion criteria were World Health Organization functional class (FC) II or III, 6-minute walk distance (6MWD)≥250 m, and a REVEAL 2.0 risk score ≤9 (Benza et al. 2021, DOI: https://doi.org/10.1016/j.chest.2020.08.2069). Patients could be receiving up to two oral PAH background therapies if taken at a stable dose for ≥30 days prior to baseline. As this study focused on the addition of a new therapy rather than the replacement of one therapy by another therapy, participants were eligible regardless of the number of pulmonary arterial hypertension background therapies (0, 1, or 2) they were receiving at baseline. […] Baseline assessments were collected up to 14 days prior to initiation of parenteral treprostinil, and included hemodynamics via echocardiogram and RHC, FC, N-terminal-pro brain natriuretic peptide (NT-proBNP), 6MWD, and medication history. Of note, historical RHC data could be used for baseline assessments if performed up to 180 days prior to initiating parenteral treprostinil. Echocardiograms were uploaded and stored in a central repository and evaluated by an independent central reader in accordance with the American Society of Echocardiography Guidelines (Bossone et al., DOI: 10.1016/j.echo.2012.10.009).
(§2) Once patients reached at least 20 ng/kg/min and were deemed suitable for transition based on physician assessment, they were transitioned at Week 2,4, or 8 to oral treprostinil via cross-titration in an inpatient or outpatient setting over 1-21 days. All participants still receiving parenteral treprostinil at Week 8 began transitioning to oral treprostinil regardless of their parenteral treprostinil dose unless deemed unsuitable for transition by their clinician. Before transition, 6MWD, WHO FC, NT-proBNP, and echocardiography parameters were assessed.
The primary endpoint was the percentage of patients who achieved an oral treprostinil TDD of at least 12 mg (0.171 mg/kg for patients <70 kg) at Week 16. Secondary endpoints included change from baseline to Week 16 in risk strata and clinical parameters, where baseline values were collected within 14 days prior to parenteral treprostinil initiation. Changes in risk strata for FC, NT-proBNP, 6MWD, and right atrial (RA) area were assessed using the 2015 ESC/ERS Guidelines, which categorizes risk for each determinant as low, intermediate, and high (Galiè et al., 2016). Clinical parameters of interest included FC, NT-proBNP, 6MWD, echocardiography parameters, REVEAL Lite 2 score (Benza et al., 2021), and Borg Dyspnea Score (Borg, 1982, DOI: https://doi.org/10.1249/00005768-198205000-00012). […]

[3] = system: patients with pulmonary arterial hypertension; experiment: Phase 4 open-label 16-week study: echocardiography parameters; format: in vivo, human
Description: as §1, §2
The primary endpoint was the percentage of patients who achieved an oral treprostinil TDD of at least 12 mg (0.171 mg/kg for patients <70 kg) at Week 16. Secondary endpoints included change from baseline to Week 16 in risk strata and clinical parameters, where baseline values were collected within 14 days prior to parenteral treprostinil initiation. Changes in risk strata for FC, NT-proBNP, 6MWD, and right atrial (RA) area were assessed using the 2015 ESC/ERS Guidelines, which categorizes risk for each determinant as low, intermediate, and high (Galiè et al., 2016). Clinical parameters of interest included FC, NT-proBNP, 6MWD, echocardiography parameters, REVEAL Lite 2 score (Benza et al., 2021), and Borg Dyspnea Score (Borg, 1982, DOI: https://doi.org/10.1249/00005768-198205000-00012). The REVEAL Lite 2 score includes clinical parameters to determine the risk status (low, intermediate, and high) for pulmonary arterial hypertension. The Borg Dyspnea Score ranges from 0 to 10, where 0 indicates no dyspnea and 10 indicates very, very heavy (almost maximal) dyspnea. Patient-reported outcomes were assessed using the emPHasis-10 quality of life questionnaire (Yorke et al., 2014, DOI: 10.1183/09031936.00127113) and the Pulmonary Arterial Hypertension Symptom Scale (PAHSS) (Matura et al., 2015, DOI: https://doi.org/10.1016/j.apnr.2014.04.001). The Treatment Satisfaction Questionnaire for Medication (TSQM) (Atkinson et al., 2004, DOI: https://doi.org/10.1186/1477-7525-2-12) was used to measure patient satisfaction with their medication over the last two to three weeks; higher scores indicate greater satisfaction. EmPHasis-10 scores can range from 0 to 50, where lower scores indicate better quality of life. […]

[4] = system: Pulmonary hypertension patients; conditions: cited from earlier work
[5] = system: Pulmonary arterial hypertension patients; conditions: cited from earlier work
[6] = Parenteral Treprostinil Phase (Before Transition), n = 35
[7] = transition visit, per-protocol population
[8] = Oral Treprostinil Phase (After Transition), n = 32
[9] = 2015 ESC/ERS risk strata, baseline to Week 16

## CCCCC[C@H](O)CC[C@@H]1[C@H]2Cc3cccc(OCC(=O)O)c3C[C@H]2C[C@H]1O [parenteral treprostinil, treprostinil]
[1]; [6]
  Diarrhea, patients with AE: 18 (51) n (%)
  Extremity pain, patients with AE: 12 (34) n (%)
  Flushing, patients with AE: 10 (29) n (%)
  Headache, patients with AE: 28 (80) n (%)
  Jaw pain, patients with AE: 16 (46) n (%)
  Nausea, patients with AE: 24 (69) n (%)
  Vomiting, patients with AE: 13 (37) n (%)
[1]
  most bothersome AE: extremity pain, followed by jaw pain, headache, and diarrhea
  participants who received acetaminophen for prostacyclin-related headache: 55%
  participants who received loperamide for prostacyclin-related diarrhea: 34%
  participants who received ondansetron for prostacyclin-related nausea/vomiting: 69%
[1]; patients who initiated parenteral treprostinil
  patients reporting at least one treatment-emergent AE: All patients
[2]; transition visit, 29 patients
  patients who improved WHO FC: 76%
  patients who maintained WHO FC: 21%
  patients who worsened WHO FC: 3%
[2]; [7]
  6MWD, median (IQR): 377 (318, 453) m
  NT-proBNP, median (IQR): 186 (110, 724) ng/L
[3]; [7]
  TAPSE, median (IQR): 18.1 (14.8, 20.9) mm
  right atrial area, median (IQR): 19.3 (16.0, 26.7) cm2

## CCCCC[C@H](O)CC[C@@H]1[C@H]2Cc3cccc(OCC(=O)O)c3C[C@H]2C[C@H]1O [treprostinil]
[1]; Transition Phase, n = 33
  Diarrhea, patients with AE: 17 (52) n (%)
  Extremity pain, patients with AE: 10 (30) n (%)
  Flushing, patients with AE: 10 (30) n (%)
  Headache, patients with AE: 19 (58) n (%)
  Jaw pain, patients with AE: 15 (46) n (%)
  Nausea, patients with AE: 21 (64) n (%)
  Vomiting, patients with AE: 5 (15) n (%)

## CCCCC[C@H](O)CC[C@@H]1[C@H]2Cc3cccc(OCC(=O)O)c3C[C@H]2C[C@H]1O [oral treprostinil, treprostinil]
[1]; [8]
  Diarrhea, patients with AE: 17 (53) n (%)
  Extremity pain, patients with AE: 11 (34) n (%)
  Flushing, patients with AE: 17 (53) n (%)
  Headache, patients with AE: 19 (59) n (%)
  Jaw pain, patients with AE: 16 (50) n (%)
  Nausea, patients with AE: 21 (66) n (%)
  Vomiting, patients with AE: 9 (28) n (%)
[1]; after transition from Remodulin to Orenitram
  adverse events headache, nausea, and vomiting: tended to improve
[1]; after transitioning from parenteral to oral treprostinil
  use of all concomitant medications: decreased
[1]; after transitioning to oral treprostinil, scale 1 bothers me a lot to 4 not at all bothersome
  bothersomeness of extremity pain, jaw pain and headache: not at all bothersome
[1]
  most bothersome AE: diarrhea and nausea
  participants who received acetaminophen for prostacyclin-related headache: 38%
  participants who received loperamide for prostacyclin-related diarrhea: 38%
  participants who received ondansetron for prostacyclin-related nausea/vomiting: 48%
[1]; three times daily
  tolerability: well tolerated
[2]; [9]
  percentage of patients who shifted to a lower risk stratum for 6MWD: 15%
  percentage of patients who shifted to a lower risk stratum for FC: 39%
  percentage of patients who shifted to a lower risk stratum for NT-proBNP: 39%
  percentage of patients who shifted to a lower risk stratum for RA area: 35%
[2]; Week 16
  6MWD, median: 395 m
  Borg Dyspnea Score, median: 3
  NT-proBNP, median: 212 ng/L
  REVEAL Lite 2 score, median: 3.5
[2]; Week 16 (0% at baseline)
  percentage of patients classified as FC I: 46%
[2]; baseline to Week 16
  Borg Dyspnea Score, median change from baseline: −1
  NT-proBNP, median change from baseline: -134 ng/L
  PAHSS domains: improvements were seen in most domains
  REVEAL Lite 2 score, median change from baseline: −1
  emPHasis- scores (quality of life), median change from baseline: −3
  patients improving in WHO FC: 68%
  patients worsening in WHO FC: one
[3]; Week 16
  Cardiac output, median: 4.9 L/min
  Heart rate, median: 76 bpm
  LV diameter, median: 44.9 mm
  LV eccentricity, diast., median: 1.0
  LV eccentricity, syst., median: 1.2
  LVOT integral, median: 19.5 cm
  LVOT, median: 19.6 mm
  PVAT, median: 89.9 ms
  RA area, median: 17.5 cm^2
  RV MPI, median: 0.4
  RV diameter, median: 24.8 mm
  RV wall strain, median: −19.2%
  RV/LV ratio, diastole, median: 0.6
  TAPSE, median: 19.9 mm
[3]; baseline to Week 16
  Cardiac output, median Change from Baseline: +0.5 L/min
  Heart rate, median Change from Baseline: +2 bpm
  LV diameter, median Change from Baseline: +3.5 mm
  LV eccentricity, diast., median Change from Baseline: 0.0
  LV eccentricity, syst., median Change from Baseline: +0.1
  LVOT integral, median Change from Baseline: +0.9 cm
  LVOT, median Change from Baseline: +0.4 mm
  PVAT, median Change from Baseline: +4.4 ms
  RA area, median Change from Baseline: −2.9 cm^2
  RV MPI, median Change from Baseline: −0.1
  RV diameter, median Change from Baseline: −2.6 mm
  RV wall strain, median Change from Baseline: +1.3%
  RV/LV ratio, diastole, median Change from Baseline: −0.1
  TAPSE, median Change from Baseline: +1.2 mm
[4]
  outcomes, including 6-minute walk distances, in patients who attained higher total daily doses: better outcomes

## O=C(O)COC[C@H]1CC[C@H](COC(=O)N(c2ccccc2)c2ccc(Cl)cc2)CC1 [ralinepag]
[5]
  outcomes, including pulmonary vascular resistance and 6-minute walk distances, versus placebo: better outcomes
